The record followed here is patent publication US20100119599A1 (ARCHER PHARMACEUTICALS, INC., priority 2006, published 2010).

Molecules are shown by their SMILES.

One assay relates to Aβ1-42. The assay is described as follows: Measurement of Aβ1-42 in culture medium of 7W WT APP751 CHO cells by ELISA. Format: cell-based, Chinese hamster. The conditions noted are these: Cricetulus griseus; Table 1; 5 μM test compound; CHO cells stably transfected with human APP751; culture medium, ELISA; control DMSO; 0 = no detectable amount; read-out: Aβ1-42 (% of control).

For the next assay, the system named is Aβ1-40. The assay is described as follows: Measurement of Aβ1-40 in culture medium of 7W WT APP751 CHO cells by ELISA. Format: cell-based, Chinese hamster. Conditions: Cricetulus griseus; Table 1; 5 μM test compound; CHO cells stably transfected with human APP751; culture medium, ELISA; control DMSO; 0 = no detectable amount. A general note: ELISA stands for enzyme-linked immunosorbent assay.
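Further: 5 µM test compound but RI-coded compounds at 10 µM for 24 hours.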

For the compound `COC(=O)C1=C(C)NC2=C(C(=O)CC(c3ccccc3Cl)C2)C1c1ccc([N+](=O)[O-])cc1` (centres unmarked) [ST015176, methyl 7-(2-chlorophenyl)-2-methyl-4-(4-nitrophenyl)-5-oxo-1,4,6,7,8-pentahydroquinoline-3-carboxylate], the results for the activity at 5 µM in the assay on Aβ1-42 and with Aβ1-40 were 76.4% and 17.4%, respectively.

In the case of `CCN(CC)c1ccc(C2C(C(=O)OC)=C(C)NC3=C2C(=O)CC(c2ccccc2Cl)C3)cc1` (centres unmarked) [ST015182, methyl 4-[4-(diethylamino)phenyl]-7-(2-chlorophenyl)-2-methyl-5-oxo-1,4,6,7,8-pentahydroquinoline-3-carboxylate], the results for the activity at 5 µM in the assay on Aβ1-42 and with Aβ1-40 were 61.4% and 39.9%, respectively.

Turning to `COC(=O)C1=C(C)NC2=C(C(=O)CC(c3ccc(Cl)cc3)C2)C1c1ccc(C)cc1` (centres unmarked) [ST015214, methyl 7-(4-chlorophenyl)-2-methyl-4-(4-methylphenyl)-5-oxo-1,4,6,7,8-pentahydroquinoline-3-carboxylate], the activity at 5 µM with Aβ1-42 is 66.7%; with Aβ1-40 it was 60.7%.

`COC(=O)C1=C(C)NC2=C(C(=O)CC(c3ccc(Cl)cc3)C2)C1c1ccc(Cl)c(Cl)c1` (centres unmarked) [ST015215, methyl 4-(3,4-dichlorophenyl)-7-(4-chlorophenyl)-2-methyl-5-oxo-1,4,6,7,8-pentahydroquinoline-3-carboxylate]: the values for the activity at 5 µM in the assay on Aβ1-42 and with Aβ1-40 were 39.8% and 23.1%, respectively.

Regarding `COC(=O)C1=C(C)NC2=C(C(=O)CC(c3ccc(Cl)cc3)C2)C1c1ccccc1F` (centres unmarked) [ST015216, methyl 7-(4-chlorophenyl)-4-(2-fluorophenyl)-2-methyl-5-oxo-1,4,6,7,8-pentahydroquinoline-3-carboxylate], the activity at 5 µM amounted to 93.2% in the assay on Aβ1-42 and 68.4% in the assay on Aβ1-40.

As for `COC(=O)C1=C(C)NC2=C(C(=O)CC(c3ccc(Cl)cc3)C2)C1c1ccccc1` (centres unmarked) [ST015218, methyl 7-(4-chlorophenyl)-2-methyl-5-oxo-4-phenyl-1,4,6,7,8-pentahydroquinoline-3-carboxylate], the results for the activity at 5 µM in the assay on Aβ1-42 and in the assay with Aβ1-40 were 0% and 59.3%, respectively.

With `COCCOC(=O)C1=C(C)NC2=C(C(=O)CCC2)C1c1cccc(OC)c1` (centres unmarked) [ST015219, 2-methoxyethyl 4-(3-methoxyphenyl)-2-methyl-5-oxo-1,4,6,7,8-pentahydroquinoline-3-carboxylate], the activity at 5 µM turned out to be 45.8% in the assay with Aβ1-42 and 83.7% with Aβ1-40.

For `CC1=C(C(=O)OCCc2ccccc2)C(c2ccccc2Br)C2=C(CC(c3ccccc3)CC2=O)N1` (centres unmarked) [ST015234, 2-phenylethyl 4-(2-bromophenyl)-2-methyl-5-oxo-7-phenyl-1,4,6,7,8-pentahydroquinoline-3-carboxylate], the activity at 5 µM in the assay with Aβ1-42 is 54.8%; with Aβ1-40, 51.8%.

As for `CCOC(=O)C1=C(C)NC2=C(C(=O)CC(c3ccccc3)C2)C1c1cc(OC)ccc1OC` (centres unmarked) [ST015254, ethyl 4-(2,5-dimethoxyphenyl)-2-methyl-5-oxo-7-phenyl-1,4,6,7,8-pentahydroquinoline-3-carboxylate], the activity at 5 µM in the assay on Aβ1-42 was 33.8%; with Aβ1-40 it was 46.9%.

Regarding `CC1=C(C(=O)OCCc2ccccc2)C(c2ccc([N+](=O)[O-])cc2)C2=C(CC(c3ccccc3)CC2=O)N1` (centres unmarked) [ST015255, 2-phenylethyl 2-methyl-4-(4-nitrophenyl)-5-oxo-7-phenyl-1,4,6,7,8-pentahydroquinoline-3-carboxylate], the activity at 5 µM in the assay on Aβ1-42 was determined as 74.7%; in the assay on Aβ1-40, 40.5%.

Turning to `CCOC(=O)C1=C(C)NC2=C(C(=O)CC(c3ccc(OC)cc3)C2)C1c1ccccc1F` (centres unmarked) [ST015256, ethyl 4-(2-fluorophenyl)-7-(4-methoxyphenyl)-2-methyl-5-oxo-1,4,6,7,8-pentahydroquinoline-3-carboxylate], the activity at 5 µM in the assay with Aβ1-42 was found to be 75.8%; in the assay on Aβ1-40, 69.8%.

With `COC(=O)C1=C(C)NC2=C(C(=O)CC(c3ccc(Cl)cc3)C2)C1c1ccc(OCc2ccccc2)cc1` (centres unmarked) [ST016953, methyl 7-(4-chlorophenyl)-2-methyl-5-oxo-4-[4-(phenylmethoxy)phenyl]-1,4,6,7,8-pentahydroquinoline-3-carboxylate], the figures for the activity at 5 µM in the assay with Aβ1-42 and in the assay on Aβ1-40 were 69.7% and 43.9%, respectively.

Take `COc1ccc(COC(=O)C2=C(C)NC3=C(C(=O)CCC3)C2c2cccc(F)c2)cc1` (centres unmarked) [ST016959, (4-methoxyphenyl)methyl 4-(3-fluorophenyl)-2-methyl-5-oxo-1,4,6,7,8-pentahydroquinoline-3-carboxylate]: the activity at 5 µM in the assay on Aβ1-42 is 57.2%; in the assay with Aβ1-40, 28.8%.

`COCCOC(=O)C1=C(C)NC2=C(C(=O)CC(c3ccc(Cl)cc3)C2)C1c1ccc(Br)cc1` (centres unmarked) [ST016960, 2-methoxyethyl 4-(4-bromophenyl)-7-(4-chlorophenyl)-2-methyl-5-oxo-1,4,6,7,8-pentahydroquinoline-3-carboxylate]: the activity at 5 µM in the assay with Aβ1-42 is 76.4%; in the assay on Aβ1-40, 51.5%.

Regarding `COc1ccc(C2CC(=O)C3=C(C2)NC(C)=C(C(=O)OC(C)C)C3c2ccc(OCc3ccccc3)cc2)cc1` (centres unmarked) [ST016961, methylethyl 7-(4-methoxyphenyl)-2-methyl-5-oxo-4-[4-(phenylmethoxy)phenyl]-1,4,6,7,8-pentahydroquinoline-3-carboxylate], the activity at 5 µM in the assay with Aβ1-42 turned out to be 89.5%; in the assay on Aβ1-40, 41.8%.

As for `CCOc1cc(C2C(C(=O)OCc3ccc(OC)cc3)=C(C)NC3=C2C(=O)CC(C)(C)C3)ccc1O` (centres unmarked) [ST016964, (4-methoxyphenyl)methyl 4-(3-ethoxy-4-hydroxyphenyl)-2,7,7-trimethyl-5-oxo-1,4,6,7,8-pentahydroquinoline-3-carboxylate], the results for the activity at 5 µM in the assay with Aβ1-42 and with Aβ1-40 were 40% and 36.4%, respectively.

On to `CC1=C(C(=O)OCC(C)C)C(c2cccc(Cl)c2)C2=C(CC(c3ccccc3)CC2=O)N1` (centres unmarked) [ST016969, 2-methylpropyl 4-(3-chlorophenyl)-2-methyl-5-oxo-7-phenyl-1,4,6,7,8-pentahydroquinoline-3-carboxylate], for which the activity at 5 µM in the assay on Aβ1-42 was found to be 60.2%; in the assay with Aβ1-40 it was 30.3%.

As for `CCc1ccc(C2C(C(=O)OCC(C)C)=C(C)NC3=C2C(=O)CC(c2ccccc2)C3)cc1` (centres unmarked) [ST016970, 2-methylpropyl 4-(4-ethylphenyl)-2-methyl-5-oxo-7-phenyl-1,4,6,7,8-pentahydroquinoline-3-carboxylate], the activity at 5 µM with Aβ1-42 amounted to 27.8%; with Aβ1-40 it was 27.7%.

Turning to `COCCOC(=O)C1=C(C)NC2=C(C(=O)CC(c3ccc(Cl)cc3)C2)C1c1ccc([N+](=O)[O-])cc1` (centres unmarked) [ST016971, 2-methoxyethyl 7-(4-chlorophenyl)-2-methyl-4-(4-nitrophenyl)-5-oxo-1,4,6,7,8-pentahydroquinoline-3-carboxylate], the figures for the activity at 5 µM in the assay on Aβ1-42 and in the assay with Aβ1-40 were 86.2% and 27.3%, respectively.

Take `CCOc1ccc(C2C(C(=O)OC)=C(C)NC3=C2C(=O)CC(c2ccc(OC)cc2)C3)cc1` (centres unmarked) [ST016974, methyl 4-(4-ethoxyphenyl)-7-(4-methoxyphenyl)-2-methyl-5-oxo-1,4,6,7,8-pentahydroquinoline-3-carboxylate]: the activity at 5 µM in the assay on Aβ1-42 came out at 57.4%; in the assay with Aβ1-40, 34.6%.

On to `CC1=C(C(=O)OCC(C)C)C(c2ccc3c(c2)OCO3)C2=C(CC(c3ccccc3)CC2=O)N1` (centres unmarked) [ST016978, 2-methylpropyl 4-(2H-benzo[3,4-d]1,3-dioxolen-5-yl)-2-methyl-5-oxo-7-phenyl-1,4,6,7,8-pentahydroquinoline-3-carboxylate], for which the activity at 5 µM in the assay with Aβ1-42 was found to be 99.5%; in the assay with Aβ1-40, 45.9%.

In the case of `CCCOc1ccc(C2C(C(=O)OCc3ccc(OC)cc3)=C(C)NC3=C2C(=O)CC(C)(C)C3)cc1OC` (centres unmarked) [ST016979, (4-methoxyphenyl)methyl 4-(3-methoxy-4-propoxyphenyl)-2,7,7-trimethyl-5-oxo-1,4,6,7,8-pentahydroquinoline-3-carboxylate], the activity at 5 µM came to 90.1% in the assay with Aβ1-42 and 53.7% in the assay with Aβ1-40.

Take `CCc1ccc(C2C(C(=O)OCc3ccc(OC)cc3)=C(C)NC3=C2C(=O)CCC3)cc1` (centres unmarked) [ST016983, (4-methoxyphenyl)methyl 4-(4-ethylphenyl)-2-methyl-5-oxo-1,4,6,7,8-pentahydroquinoline-3-carboxylate]: the activity at 5 µM in the assay on Aβ1-42 was 72.6%; in the assay with Aβ1-40 it was 51.6%.

In the case of `CCCOc1ccccc1C1C(C(=O)OCC(C)C)=C(C)NC2=C1C(=O)CC(c1ccccc1)C2` (centres unmarked) [ST016984, 2-methylpropyl 2-methyl-5-oxo-7-phenyl-4-(2-propoxyphenyl)-1,4,6,7,8-pentahydroquinoline-3-carboxylate], the activity at 5 µM in the assay with Aβ1-42 came to 56.2%; in the assay with Aβ1-40, 25.4%.

`COC(=O)C1=C(C)NC2=C(C(=O)CC(c3ccc(OC)cc3)C2)C1c1cccc(OC)c1OC` (centres unmarked) [ST016999, methyl 4-(2,3-dimethoxyphenyl)-7-(4-methoxyphenyl)-2-methyl-5-oxo-1,4,6,7,8-pentahydroquinoline-3-carboxylate]: the activity at 5 µM in the assay with Aβ1-42 came out at 82.8%; in the assay on Aβ1-40, 67.3%.

With `CCOc1ccc(C2C(C(=O)OC(C)C)=C(C)NC3=C2C(=O)CC(c2ccc(OC)cc2)C3)cc1` (centres unmarked) [ST017011, methylethyl 4-(4-ethoxyphenyl)-7-(4-methoxyphenyl)-2-methyl-5-oxo-1,4,6,7,8-pentahydroquinoline-3-carboxylate], the figures for the activity at 5 µM with Aβ1-42 and in the assay on Aβ1-40 were 74% and 45.7%, respectively.

Consider `COc1ccc(COC(=O)C2=C(C)NC3=C(C(=O)CC(C)(C)C3)C2c2ccc(O)c(OC)c2)cc1` (centres unmarked) [ST017025, (4-methoxyphenyl)methyl 4-(4-hydroxy-3-methoxyphenyl)-2,7,7-trimethyl-5-oxo-1,4,6,7,8-pentahydroquinoline-3-carboxylate], for which the activity at 5 µM in the assay on Aβ1-42 was 32.2%; in the assay on Aβ1-40 it was 30.1%.

`CCCOc1ccccc1C1C(C(=O)OCC(C)C)=C(C)NC2=C1C(=O)CC(c1ccc(Cl)cc1)C2` (centres unmarked) [ST017026, 2-methylpropyl 7-(4-chlorophenyl)-2-methyl-5-oxo-4-(2-propoxyphenyl)-1,4,6,7,8-pentahydroquinoline-3-carboxylate]: the activity at 5 µM in the assay on Aβ1-42 stood at 80.6%; in the assay on Aβ1-40, 40.6%.
